According to US8575188B2 (priority 2009, dated 2013):
Where two headings read alike, the source gives them in different places.

What was measured:
[1] = system: human non small cell lung cancer cell line H460; test: Antiproliferation (cytotoxicity) assay, 72 hrs under air, Alamar Blue; type: cell-based; conditions: read-out: IC50
[2] = system: human non small cell lung cancer H-460; test: Xenograft model, subcutaneous, tumor growth inhibition and body weight loss
Procedure: (§1) The first three models were produced by subcutaneous implantation of the appropriate number of cells into the flank of the animals. When tumor size was approximately 150 mm^3, animals were randomized into groups of 10 mice each for dosing. One arm was dosed with only vehicle and the results used for the efficacy calculations. […] TGI=(1−T/C) %. T/C ratio was calculated as T/C=(Tn−Ti)/(Cn−Ci), where Tn is tumor volume in treatment group on Day n, and Ti is the initial tumor volume in the treatment group. Cn is the tumor volume of the vehicle group on the last day of measurement. Ci is the initial tumor volume in the vehicle control group. Day n is the last measurement taken when all the animals in the vehicle group were not yet euthanized. Animals were euthanized when tumor volumes grew larger than 2000 mm^3.

human colon cancer HT-29 = test: as above
Procedure: as §1

[3] = system: human prostate cancer PC-3; test: as above
Procedure: as §1

[4] = system: human prostate cancer cell line PC-3; test: Antiproliferation assay, 72 hrs under air, Alamar Blue; type: cell-based; conditions: read-out: PC3 IC50
[5] = system: human melanoma cell line A375; test: as above; type: cell-based
[6] = system: BCRP, which over expressed the breast cancer resistance protein; test: Efflux pump drug resistance, antiproliferation assay, BCRP over expressing line
Procedure: (§2) The compounds were screened for cytotoxicity using human non small cell lung cancer cell line H460. […]
(§3) Cellular drug resistance was determined using the antiproliferation assay described above.

[7] = system: human prostate cancer cell line LNCap; test: Antiproliferation assay, 72 hrs under air, Alamar Blue; type: cell-based
[8] = system: bone marrow progenitor cells; test: Bone marrow progenitor cell clonogenic assay (CFU-GM), human; conditions: read-out: Human CFU-GM (IC50 nM) THLD
Procedure: (§4) A clonogenic assay was performed using bone marrow progenitor cells derived from the blood of mice and humans.

[9] = system: bone marrow progenitor cells; test: Bone marrow progenitor cell clonogenic assay (CFU-GM), mouse; conditions: read-out: Mouse CFU-GM (IC50 nM) THLD
Procedure: as §4

[10] = system: human melanoma cell line SKMEL2; test: Antiproliferation assay, 72 hrs under air, Alamar Blue; type: cell-based
[11] = system: human melanoma cell line SKMEL-28; test: as above; type: cell-based
[12] = system: human melanoma cell line MAMLE-3M; test: as above; type: cell-based
[13] = system: human prostate cancer cell line DU145; test: as above; type: cell-based
[14] = stated as known for topotecan; cited from earlier work
[15] = system: IGROV1 human ovarian cancer cells; test: Xenograft model of metastatic ovarian cancer (i.p.), survival
Procedure: One arm was dosed with only vehicle and the results used for the efficacy calculations. […] A xenograft model of metastatic ovarian cancer was set up by the intraperitoneal (i.p) injection of 3×10^6 IGROV1 human ovarian cancer cells in nude mice. Mice were evaluated twice a week for morbidity and mortality. Kaplan-Meier survival curves were plotted.

[16] = system: human ovarian cancer cell line IGROV-1; test: Antiproliferation assay, 72 hrs under air, Alamar Blue; type: cell-based
[17] = system: human colon cancer cell line HT-29; test: as above; type: cell-based
[18] = system: DX5, which over expresses the MDR 1 efflux pump; test: Efflux pump drug resistance, antiproliferation assay, MDR 1 over expressing line; type: cell-based; conditions: MDR1, 72 h, air, 3 days; read-out: Air 3d DX5 prol. IC50
Procedure: as §2, §3

[19] = system: MRP1 over expressing H69AR line; test: Efflux pump drug resistance, antiproliferation assay, MRP1 over expressing line; type: cell-based; conditions: Homo sapiens, 72 h, air, 3 days, read-out: Air 3d H69ar (MRP1) prol. IC50
Procedure: as §2, §3

[20] = Brain penetration, AUC in brain versus AUC plasma; conditions: mouse
Procedure: Certain compounds of the invention were assessed for brain penetration by comparing the AUC for plasma exposure versus the AUC in brain.

pcDNA = test: Efflux pump drug resistance, antiproliferation assay, parent line; type: cell-based; conditions: 72 h, air, 3 days; read-out: Air 3d pcDNA prol. IC50
Procedure: as §2, §3

[21] = system: H69 small cell lung cancer line; test: as above; type: cell-based; conditions: 72 h, air, 3 days; read-out: Air 3d H69 prol. IC50
Procedure: as §2, §3

[22] = Bone marrow progenitor cell clonogenic assay (CFU-GM), human; conditions: human
Procedure: as §4

Oral bioavailability = conditions: rat, in vivo, Sprague-Dawley rats
From the text: Rats are often a useful species for predicting oral bioavailablity in humans.

[23] = Bone marrow progenitor cell clonogenic assay (CFU-GM), mouse; conditions: mouse
Procedure: as §4

[24] = In vivo pharmacokinetics, oral gavage; conditions: CD, mouse, in vivo, po
Procedure: The data normalized to a 50 mg/kg dose are shown below (compounds were dosed at either 25 or 50 mg/kg).

[25] = system: Messa ovarian carcinoma cell line; test: Efflux pump drug resistance, antiproliferation assay, parent line; type: cell-based; conditions: Homo sapiens, MES-SA, 72 h, air, 3 days; read-out: Air 3d MESSA prol. IC50
Procedure: […] Cells were treated with test compounds at various concentrations under air for 72 hrs, and then cell viability and proliferation were assessed by Alamar Blue staining.
as §3

[26] = H460, PO, QD × 5/wk, 2 weeks, 2 mg/Kg
[27] = HT29, PO, QD × 5/wk, 4 weeks, 2 mg/Kg
[28] = PC3, PO, QD × 5/wk, 2 weeks, 2 mg/Kg

In the case of CC[C@@]1(O)C(=O)OCc2c1cc1n(c2=O)Cc2cc3c(CN(C)C)c(O)ccc3nc2-1 [Topotecan, reference compound], the IC50 [1] is reported as 45 nM, the “Max BWL (%)” value [2, 26] is reported as 8.9% and the “TGI (%)” value [2, 26] is reported as 46.1%. The “Max BWL (%)” value (human colon cancer HT-29; [27]) was 0%, the “TGI (%)” value (human colon cancer HT-29; [27]) was 70.3% and the “Max BWL (%)” value [3, 28] was 1.3%. The “TGI (%)” value [3, 28] was 79%, the IC50 [4] was 45 nM and the IC50 [5] was 13 nM. For the same molecule, the “ratio BCRP over expressing line versus the parent cell line” value ([6]; not told) was 51, the IC50 [7] was 9 nM and the IC50 [8] was 8 nM. It also gave an IC50 [9] of 130 nM, an IC50 ([10]; read-out: SKMEL-2 IC50) of 140 nM and an IC50 [11] greater than 10000 nM. For the same molecule, the IC50 [12] was 1000 nM, the IC50 [13] was 30 nM and the “brain levels in mice relative to plasma levels” value [14] was “about 30%”. It also gave a T/C ([15]; mouse, in vivo, 2 mg/kg) of 186, an IC50 [16] of 160 nM and an IC50 ([17]; read-out: HT29 IC50) greater than 1000 nM.

In the case of CCc1c2c(nc3ccccc13)-c1c(N)c3c(c(=O)n1C2)COC(=O)[C@]3(O)CC [TH1338], the IC50 ([1]; Homo sapiens, NCI-H460, H460, inhibition of proliferation, 72 hrs under air) is reported as 7.2 nM, the IC50 [18] is reported as 12 nM and the “TGI (%)” value ([2]; H460, PO, QD × 5/wk, 2 weeks, 40 mg/Kg) is reported as 84.3%. For the same molecule, the “Max. BWL (%)” value ([2]; mouse, in vivo, po, 40 mg/kg) was 1.5%, the “TGI (%)” value (human colon cancer HT-29; HT29, PO, QD × 5/wk, 4 weeks, 40 mg/Kg) was 100.7% and the “Max. BWL (%)” value (human colon cancer HT-29; mouse, in vivo, po, 40 mg/kg) was 2.9%. For the same molecule, the “TGI (%)” value ([3]; PC3, PO, QD × 5/wk, 2 weeks, 40 mg/Kg) was 107%, the “Max. BWL (%)” value ([3]; mouse, in vivo, po, 40 mg/kg) was 7% and the IC50 [19] was 240 nM. For the same molecule, the IC50 ([4]; Homo sapiens) was 24 nM, the IC50 ([5]; Homo sapiens, A-375) was 7 nM and the IC50 ([6]; 72 h, read-out: Air 3d BCRP prol. IC50 nM, air, 3 days) was 4.9 nM. The “3d BCRP/pcDNA” value ([6]; ratio of IC50s, BCRP over expressing versus parent line, 3 days) was 1.1395, the Kp [20] was 0.7 and the IC50 (pcDNA) was 4.3 nM. For the same molecule, the IC50 [21] was 110 nM, the IC50 ([7]; Homo sapiens, LNCaP) was 120 nM and the IC50 ([8]; Homo sapiens, CFU-GM) was 100 nM. It also gave an IC90 [22] of 650 nM, a bioavailability (Oral bioavailability) of 88.9% and an IC50 ([9]; Mus musculus, CFU-GM) of 620 nM. The IC90 [23] was 4500 nM, the IC50 ([10]; Homo sapiens, SK-MEL-2, read-out: SKMEL-2 IC50) was 130 nM and the IC50 ([11]; Homo sapiens, SK-MEL-28) was greater than 10000 nM. It also gave a half-life [24] of 4.17 h, an AUC ([24]; 50 mg/kg) of 1070 ng·h/mL and a Cmax ([24]; 50 mg/kg) of 250 ng/mL. It also gave an IC50 ([12]; Homo sapiens) of 1200 nM, an IC50 ([13]; Homo sapiens, DU-145) of 18 nM and an IC50 [25] of 4.3 nM. It also gave a T/C ([15]; IGROV1 i.p., median survival treated / vehicle times 100, PO, QD × 5/wk, 4 weeks, 40 mg/Kg) of 221, an IC50 ([16]; Homo sapiens, IGROV-1) of 20 nM and an IC50 ([17]; Homo sapiens, HT-29, read-out: HT29 IC50) of 302 nM.
